Reference: patent US20140336616A1, “DELIVERY DEVICE” (INTERNATIONAL SCIENTIFIC PTY LTD, priority 2012, published 2014)

System: excised human skin
Test: Sodium fluorescein dye penetration into excised human skin in Franz cells, with LSCM imaging and image analysis
Assay type: in vitro ADME
Details: 300 μL NaF 1 mg/mL in saline, 15 minutes, 34-35° C.; images from 73 μm deep
Description: Microneedle Treatment: A piece of gauze was folded in half 4 times and then the skin sample placed on top. In-situ skin tension was approximately simulated by stretching the skin over the gauze and pinning in place. A pre-prepared microneedle impact applicator was then used to apply the microneedle to the skin at speed (approximately 3 m·s−1). This applicator consisted of a housing, a spring-loaded plunger and the banks of laser cut microneedles (two 3-needle banks gave a total of 6 microneedles). The banks were mounted into the plunger which was then drawn back, loading the spring, and held in place using a pin. Upon removal of the pin, the plunger accelerated towards the skin, driving the microneedles through the stratum corneum and into the viable epidermis and dermis.
Dye incubation in Franz Cells: A Franz cell was prepared by applying vacuum grease to the sealing surfaces of the receptor and donor. […]
Laser scanning confocal microscopy (LSCM): To prepare the samples for LSCM, a cut was made around the imprint made by the Franz cell. […] The LSCM machine was then switched to the fluorescent mode with 488 nm excitation and 550±88 nm emission band was recorded. […]
Image analysis: The image data names were encoded to blind the image analysis researcher. […] Image J (NIH, Bethesda, Md.) was then used to quantify fluorescence intensity and dye positive areas. […]

O=C1OC2(c3ccc(O)cc3Oc3cc(O)ccc32)c2ccccc21 [NaF, Sodium Fluorescein]
NaF dye penetration / fluorescence pattern (LSCM, visual): no penetration of the dye beyond the stratum corneum
